Laboratory results: PubChem BioAssay AID2165 (The Scripps Research Institute Molecular Screening Center, 2009)
The source made the active and inactive calls. Cut-off read from the data, not from the text of the source: active = IC50 below about 9 µM; inactive = the rest.

Target: Tyrosine-protein kinase JAK2 (Homo sapiens) (UniProt O60674)
Experiment: JAK2V617F kinase, IRF1 reporter and Ba/F3 cytotoxicity panel, late-stage follow-up, HEL and Ba/F3 cells (AID 2165)

Tyrosine-protein kinase JAK2 (Homo sapiens), sequence (O60674 whole entry, looked up, change not shown): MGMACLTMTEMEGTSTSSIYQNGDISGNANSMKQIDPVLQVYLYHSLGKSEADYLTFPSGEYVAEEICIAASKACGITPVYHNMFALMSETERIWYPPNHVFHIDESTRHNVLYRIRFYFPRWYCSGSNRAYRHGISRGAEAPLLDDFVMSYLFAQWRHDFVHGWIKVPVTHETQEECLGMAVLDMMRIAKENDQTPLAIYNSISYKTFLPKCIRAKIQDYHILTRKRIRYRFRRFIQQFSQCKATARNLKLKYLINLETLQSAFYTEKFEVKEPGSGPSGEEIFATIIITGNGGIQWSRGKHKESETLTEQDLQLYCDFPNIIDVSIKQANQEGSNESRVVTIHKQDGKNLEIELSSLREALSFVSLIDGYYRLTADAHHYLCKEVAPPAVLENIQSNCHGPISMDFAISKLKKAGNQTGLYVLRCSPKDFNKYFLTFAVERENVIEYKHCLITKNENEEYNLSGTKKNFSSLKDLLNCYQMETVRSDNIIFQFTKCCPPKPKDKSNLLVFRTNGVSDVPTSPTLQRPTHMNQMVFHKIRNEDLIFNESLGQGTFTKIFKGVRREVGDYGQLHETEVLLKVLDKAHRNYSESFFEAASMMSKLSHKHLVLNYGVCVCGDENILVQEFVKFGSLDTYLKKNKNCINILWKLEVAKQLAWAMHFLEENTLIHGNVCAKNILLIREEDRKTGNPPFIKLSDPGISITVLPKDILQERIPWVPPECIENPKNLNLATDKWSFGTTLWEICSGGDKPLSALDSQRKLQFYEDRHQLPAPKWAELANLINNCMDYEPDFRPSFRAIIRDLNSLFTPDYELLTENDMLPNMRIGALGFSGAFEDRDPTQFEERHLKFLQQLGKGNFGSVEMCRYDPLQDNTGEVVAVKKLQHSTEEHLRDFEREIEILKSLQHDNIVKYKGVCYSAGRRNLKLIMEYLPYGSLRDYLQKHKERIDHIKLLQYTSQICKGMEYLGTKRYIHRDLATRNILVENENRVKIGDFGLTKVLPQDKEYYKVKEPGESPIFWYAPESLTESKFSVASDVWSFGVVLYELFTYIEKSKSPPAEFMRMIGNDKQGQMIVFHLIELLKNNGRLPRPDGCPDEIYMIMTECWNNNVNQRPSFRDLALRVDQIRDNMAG

For `Nc1nc(N)c2nc(-c3ccccc3)c(N)nc2n1`, the IC50 (Ba/F3, irf1 reporter) was > 40 µM (inactive) and the IC50 (HEL, irf1 reporter) was > 40 µM (inactive).

`O=C1C=CC(=O)N1CCNc1ncc(C(F)(F)F)cc1Cl` showed an IC50 (Ba/F3, irf1 reporter) of 0.699 µM and an IC50 (HEL, irf1 reporter) of 9.81 µM.

With `COc1cc2ncnc(Nc3ccc(OC(F)(F)F)cc3)c2cc1OC` the IC50 (HEL, irf1 reporter) was 3.77 µM and the IC50 (JAK2V617F) was > 40 µM (inactive).

With `CC1CCCC(NC(=O)NC(=O)CCl)C1C` (stereo not drawn) the IC50 (Ba/F3, irf1 reporter) was 3.19 µM and the IC50 (HEL, irf1 reporter) was 31.1 µM.

In the case of `Cc1[nH]c(=O)c(C(=O)/C=C/c2ccccc2)c2c1CCCC2`, the IC50 (Ba/F3, irf1 reporter) is reported as > 40 µM (inactive), the IC50 (HEL, irf1 reporter) is reported as 2.03 µM and the IC50 (JAK2V617F) is reported as 1.15 µM.

`O=C(Nc1cccc2c1[nH]c1ccccc12)C(F)(F)F` gave an IC50 (Ba/F3, irf1 reporter) of 18.9 µM and an IC50 (HEL, irf1 reporter) of 3.68 µM.
